Our source for the IC50 and viability, T/C values is PubChem BioAssay AID1845209 (Molecular Pharmacology Branch, DTP, NCI, 2023).

For the test, the system named is NCI-H211 tumor spheroids, viability percent test/control. Briefly: Anticancer human tumor NCI-H211 cell line growth inhibition.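 For all read-outs here: spheroids exposed to agents for seven days before readout.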 Particulars: spheroids with HUVEC and MSC; for viability, T/C: stronger effect = lower value. Put shortly:
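Complex spheroids of malignant cells with endothelial cells and mesenchymal stem cells; agents alone or combined, from near clinical Cmax (or 10 microM if unknown) down in half-log steps, 0.25% DMSO final.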

Setting [1] is: curve of first compound, second compound 0.003 µM.
Setting [2] is: curve of first compound, second compound 0.00949 µM.
Where [3] appears, read: curve of first compound, second compound 0.03 µM.
[4] abbreviates: curve of first compound, second compound 0.0949 µM.
Setting [5] is: curve of first compound, second compound 0.3 µM.
The mark [6] stands for this setting: second compound 0.003 µM, first compound 0.0316 µM.
Where [7] appears, read: second compound 0.003 µM, first compound 0.1 µM.
The mark [8] stands for this setting: second compound 0.003 µM, first compound 0.316 µM.
Setting [9] is: second compound 0.003 µM, first compound 1 µM.
Setting [10] is: second compound 0.003 µM, first compound 3.16 µM.
The mark [11] stands for this setting: second compound 0.003 µM, first compound 10 µM.
The mark [12] stands for this setting: second compound 0.00949 µM, first compound 0.0316 µM.
Where [13] appears, read: second compound 0.00949 µM, first compound 0.1 µM.
Setting [14] is: second compound 0.00949 µM, first compound 0.316 µM.
The mark [15] stands for this setting: second compound 0.00949 µM, first compound 1 µM.
The mark [16] stands for this setting: second compound 0.00949 µM, first compound 3.16 µM.
Setting [17] is: second compound 0.00949 µM, first compound 10 µM.
[18] abbreviates: second compound 0.03 µM, first compound 0.0316 µM.
Where [19] appears, read: second compound 0.03 µM, first compound 0.1 µM.
Setting [20] is: second compound 0.03 µM, first compound 0.316 µM.
Where [21] appears, read: second compound 0.03 µM, first compound 1 µM.
[22] abbreviates: second compound 0.03 µM, first compound 3.16 µM.
The mark [23] stands for this setting: second compound 0.03 µM, first compound 10 µM.
Setting [24] is: second compound 0.0949 µM, first compound 0.0316 µM.
The mark [25] stands for this setting: second compound 0.0949 µM, first compound 0.1 µM.
The mark [26] stands for this setting: second compound 0.0949 µM, first compound 0.316 µM.
Setting [27] is: second compound 0.0949 µM, first compound 1 µM.
Where [28] appears, read: second compound 0.0949 µM, first compound 3.16 µM.
Setting [29] is: second compound 0.0949 µM, first compound 10 µM.
The mark [30] stands for this setting: second compound 0.3 µM, first compound 0.0316 µM.
[31] abbreviates: second compound 0.3 µM, first compound 0.1 µM.
Where [32] appears, read: second compound 0.3 µM, first compound 0.316 µM.
Where [33] appears, read: second compound 0.3 µM, first compound 1 µM.
[34] abbreviates: second compound 0.3 µM, first compound 3.16 µM.
[35] abbreviates: second compound 0.3 µM, first compound 10 µM.

SMILES strings stand for the structures. Where “and” joins values, the source holds several entries; their conditions need not be identical. Identical values can stand only once. Some results are limits rather than exact numbers.

`[2H]c1nc(C)nc([2H])c1-c1cc(NC[C@@H](C)c2cccc3c(C(=O)NC)ccnc23)ncn1` + CC[C@@]1(O)C(=O)OCc2c1cc1n(c2=O)Cc2cc3c(CN(C)C)c(O)ccc3nc2-1: the IC50 was 8430 nM under setting [1]; less than 31.6 nM under setting [2]; less than 31.6 nM under setting [3]; less than 31.6 nM under setting [4]; less than 31.6 nM under setting [5]. Moreover, the viability, T/C is 65.3% under setting [6]; 63.1% under setting [7]; 49.7% under setting [8]; 65.6% under setting [9]; 51% under setting [10]; 48.1% under setting [11]. In addition, the viability, T/C is 4.11% under setting [12]; 1.98% under setting [13]; 1.95% under setting [14]; 1.63% under setting [15]; 2.52% under setting [16]; 1.58% under setting [17]. The viability, T/C under setting [18] is 0.8%; the viability, T/C under setting [19] is 1.15%; the viability, T/C under setting [20] was 1.33%; the viability, T/C under setting [21] was 0.93%; the viability, T/C under setting [22] was 1.82%; the viability, T/C under setting [23] is 1.19%. Besides, the viability, T/C reads like this: under setting [24], 1.46%; under setting [25], 0.76%; under setting [26], 1.4%; under setting [27], 0.83%; under setting [28], 1.25%; under setting [29], 1.69%. Also, the viability, T/C is 1.19% under setting [30]; 1.37% under setting [31]; 0.88% under setting [32]; 1.14% under setting [33]; 0.92% under setting [34]; 0.98% under setting [35].

For the compound `COc1cc(C)[nH]c(=O)c1CN1CCc2c(Cl)cc(C(OC)C3COC3)c(Cl)c2C1=O` (centres undefined) + CC[C@@]1(O)C(=O)OCc2c1cc1n(c2=O)Cc2cc3c(CN(C)C)c(O)ccc3nc2-1, the IC50 under setting [1] was more than 10000 nM; the IC50 under setting [2] worked out at 44.3 nM; the IC50 under setting [3] was less than 31.6 nM; the IC50 under setting [4] was less than 31.6 nM; the IC50 under setting [5] is less than 31.6 nM. Also, the viability, T/C by setting is: under setting [6], 97.8%; under setting [7], 94.2%; under setting [8], 94.5%; under setting [9], 80.2%; under setting [10], 84.6%; under setting [11], 79.1%. Further, the viability, T/C is, setting by setting: under setting [12], 61.2%; under setting [13], 23.1%; under setting [14], 19.7%; under setting [15], 23.1%; under setting [16], 20.5%; under setting [17], 17.4%. For the same compound, the viability, T/C by setting is: under setting [18], 2.26%; under setting [19], 1.33%; under setting [20], 1.49%; under setting [21], 1.03%; under setting [22], 0.89%; under setting [23], 1.35%. In addition, the viability, T/C is 1.49% under setting [24]; 1.42% under setting [25]; 1.65% under setting [26]; 1.41% under setting [27]; 1.22% under setting [28]; 0.83% under setting [29]. The viability, T/C was 1.31% under setting [30]; 1.63% under setting [31]; 1.29% under setting [32]; 1.18% under setting [33]; 1.75% under setting [34]; 0.92% under setting [35].

In the case of `Cc1sc2c(c1C)C(c1ccc(Cl)cc1)=NC(CC(=O)Nc1ccc(O)cc1)c1nnc(C)n1-2` (centres undefined), the viability, T/C reads like this: (compound 0.00949 µM) 22.6% and 55.5% and 64.2%; (compound 0.03 µM) 3.79% and 7.14% and 8.47%; (compound 0.0949 µM) 1.01% and 1.07% and 0.73%; (compound 0.3 µM) 0.87% and 0.68% and 0.48%; (compound 0.949 µM) 0.92% and 0.62% and 0.4%; (compound 3 µM) 0.83% and 0.65% and 0.43%. Also, the IC50 (curve of compound) was < 9.49 nM and 10.8 nM and 12.7 nM.

Regarding `[2H]c1nc(C)nc([2H])c1-c1cc(NC[C@@H](C)c2cccc3c(C(=O)NC)ccnc23)ncn1`, the viability, T/C runs as follows: (compound 0.0316 µM) 105% and 102% and 99.5%; (compound 0.1 µM) 103% and 92.2% and 90.7%; (compound 0.316 µM) 111% and 103% and 77.5%; (compound 1 µM) 102% and 99.2% and 90%; (compound 3.16 µM) 105% and 107% and 89.8%; (compound 10 µM) 103% (2×) and 97.1%. Further, the IC50 (curve of compound) is more than 10000 nM.
